Experimental findings from article PMC6934184, “Selective DNA-PKcs inhibition extends the therapeutic index of localized radiotherapy and chemotherapy” (The Journal of Clinical Investigation, 2019) are described below.

For this experiment, the target named is T1, EPHA6 (Homo sapiens, UniProt Q9UF33).
T1 construct: purchased Thermo Fisher Scientific (Life Technologies) SelectScreen
The experiment can be described thus: SelectScreen LanthaScreen. The conditions noted are these: read-out: % displacement. In kind it is binding. A digest of the protocol: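 Percent values come from Thermo SelectScreen profiling of NU5455, combining activity and binding assays. CSF1R was run in Z'LYTE format at Km app ATP, and CAMK1 in Adapta format with ATP listed at 10.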
On the technique in general: Time-resolved FRET reads energy transfer from a long-lived donor to a nearby acceptor.

T1 sequence (Q9UF33 23-1036): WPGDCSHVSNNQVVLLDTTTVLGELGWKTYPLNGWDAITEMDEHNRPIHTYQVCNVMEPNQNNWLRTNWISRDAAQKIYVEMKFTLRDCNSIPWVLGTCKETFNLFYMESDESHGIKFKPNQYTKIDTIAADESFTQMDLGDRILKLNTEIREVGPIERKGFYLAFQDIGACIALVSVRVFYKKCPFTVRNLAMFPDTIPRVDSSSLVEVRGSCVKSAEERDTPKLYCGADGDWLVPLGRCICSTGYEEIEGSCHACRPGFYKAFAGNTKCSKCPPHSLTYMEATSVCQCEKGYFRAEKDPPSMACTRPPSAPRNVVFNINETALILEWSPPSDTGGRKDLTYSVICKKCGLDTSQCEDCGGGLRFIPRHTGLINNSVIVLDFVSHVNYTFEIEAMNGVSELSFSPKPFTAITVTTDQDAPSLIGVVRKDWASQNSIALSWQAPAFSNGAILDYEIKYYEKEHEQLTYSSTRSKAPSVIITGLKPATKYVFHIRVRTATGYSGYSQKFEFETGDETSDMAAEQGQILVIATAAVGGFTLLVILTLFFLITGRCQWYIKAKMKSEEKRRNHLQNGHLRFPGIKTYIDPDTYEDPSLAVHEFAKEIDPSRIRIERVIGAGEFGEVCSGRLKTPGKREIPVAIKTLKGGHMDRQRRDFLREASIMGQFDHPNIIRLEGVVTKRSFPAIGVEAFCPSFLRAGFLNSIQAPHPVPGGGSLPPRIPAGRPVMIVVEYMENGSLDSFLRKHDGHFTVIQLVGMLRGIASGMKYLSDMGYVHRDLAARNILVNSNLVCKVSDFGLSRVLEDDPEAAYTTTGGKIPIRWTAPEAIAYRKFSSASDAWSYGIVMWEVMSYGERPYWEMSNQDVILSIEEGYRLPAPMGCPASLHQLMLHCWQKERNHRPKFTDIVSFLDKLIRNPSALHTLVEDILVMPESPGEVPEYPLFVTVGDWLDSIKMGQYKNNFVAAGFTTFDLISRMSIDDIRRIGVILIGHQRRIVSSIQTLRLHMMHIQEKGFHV

As for `CN(C(=O)CN1CCOCC1)c1ccc2sc3c(-c4cccc5c(=O)cc(N6CC7CCC(C6)O7)oc45)cccc3c2c1` [NU5455], the inhibition at 1 µM was found to be 1.6%.
